# Laboratory results: patent US11576866B2, “Gastric residence systems for sustained delivery of adamantane-class drugs” (Lyndra Therapeutics, Inc., priority 2016, dated 2023)
# Assays:
# [1] = PCL/SGF partition coefficient; format: physicochemical; conditions: 5:1 PCL diol (MW 530):ethyl acetate vs FaSSGF
# Text: Partitioning behavior of an adamantane-class drug can be measured between a polycaprolactone phase (PCL phase) and a simulated gastric fluid phase (SGF phase), to give the partition coefficient PPCL-SGF between the two phases. Log PPCL-SGF can also be calculated. A 5:1 mixture of polycaprolactone diol (MW 530):ethyl acetate can be used as the PCL phase, and fasted-state simulated gastric fluid (FaSSGF) can be used as the SGF phase, such that PPCL-SGF=(concentration in polycaprolactone diol)/(concentration in FaSSGF)).
# Partitioning of active pharmaceutical ingredient (API), such as an adamantane-class drug such as memantine, between the structural polymer, polycaprolactone (PCL), and fasted state simulated gastric fluid (FaSSGF) is of interest for predicting API release rate from PCL-based formulations. To measure the PCL-SGF partition coefficient of an API, a concentrated stock solution of API was added to a mixture of 1 mL FaSSGF and 1 mL of 5:1 PCL diol (MW 530):ethyl acetate. The sample was vortexed and centrifuged at 10000 rpm for 5 minutes. The SGF phase was analyzed by HPLC to measure drug concentration. The PCL phase was diluted in methanol prior to quantification on HPLC.
# [2] = Thermal stability of memantine during hot melt processing; format: physicochemical; conditions: blended with polymer (20% drug, 2% P407, 20% Eudragit RS, PCL); up to 160° C. for up to 20 minutes
# Description: The stability of memantine under conditions of hot melt processing was tested. The formulation used for hot melt processing was 20% drug, 0.5% SiO2, 0.5% alpha tocopherol, 2% P407, 20% Eudragit RS, with the balance of material made up of PCL.
# [3] = Therapeutic plasma concentrations of memantine (literature); format: in vivo; conditions: conversion of 1 micromolar
# Description: The maximum therapeutically relevant concentration of memantine is approximately 1 micromolar (Rammes et al., Curr. Neuropharmacol. 6(1): 55-78 (2008)), corresponding to a plasma level of about 180 ng/mL. A recommended therapeutic range is about 90 ng/mL to 150 ng/mL, while the laboratory alert value is 300 ng/mL (Hiemke et al., Pharmacopsychiatry 44:195 (2011)).
# [4] = dog, one compartment model; assumed input of the analysis; cited from earlier work
# [5] = human; input parameter of simulation; cited from earlier work
# [6] = cited from earlier work
structure (smiles),measurement,setting,value
CC12CC3CC(C)(C1)CC(N)(C3)C2 [memantine],PCL/SGF Partition Coefficient,[1],0.28
same,degradation during hot melt processing,[2],without significant degradation
same,plasma level corresponding to maximum therapeutically relevant concentration,[3],about 180 ng/mL
same,elimination rate constant (ke),[4],0.076 h⁻¹
same,clearance (CL),[5],5.2 L/h
same,mean volume of distribution,[5],9 to 11 L/kg
same,rate of absorption (Ka),[5],0.21 h⁻¹
same,laboratory alert value (plasma),[6]; Hiemke et al. 2011,300 ng/mL
same,maximum therapeutically relevant concentration,[6]; Rammes et al. 2008,approximately 1 micromolar
